The record followed here is paper PMC7586344, “Discovery of Novel pERK1/2- or β-Arrestin-Preferring 5-HT1A Receptor-Biased Agonists: Diversified Therapeutic-like versus Side Effect Profile” (Journal of Medicinal Chemistry, 2020).

One data set has as its target T1, 5-HT7 (Homo sapiens, UniProt P34969).
T1 construct: Eurofins Pharma Discovery Services (contract screen)
As to the kind of experiment: Off-target binding screen. To be noted: read-out: % Inhibition of Control Specific Binding; for inhibition at 1 µM: 1000 nM.

The target of another data set is T2, 5-HT1B (Homo sapiens, UniProt P28222).
T2 construct: Eurofins Pharma Discovery Services (contract screen)
T2 sequence (P28222 whole entry, species assumed): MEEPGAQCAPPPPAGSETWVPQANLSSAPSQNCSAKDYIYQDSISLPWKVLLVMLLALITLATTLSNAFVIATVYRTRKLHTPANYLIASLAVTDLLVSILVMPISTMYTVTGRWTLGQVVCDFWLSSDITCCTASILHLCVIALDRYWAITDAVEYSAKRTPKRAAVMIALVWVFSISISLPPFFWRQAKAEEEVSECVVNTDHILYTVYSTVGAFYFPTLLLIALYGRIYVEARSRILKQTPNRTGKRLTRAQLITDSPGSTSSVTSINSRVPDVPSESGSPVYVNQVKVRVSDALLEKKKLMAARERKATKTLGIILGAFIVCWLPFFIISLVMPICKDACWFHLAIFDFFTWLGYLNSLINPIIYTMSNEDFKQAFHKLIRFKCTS
As to the kind of experiment: Off-target binding screen. The conditions noted are these: read-out: % Inhibition of Control Specific Binding; for inhibition at 1 µM: 1000 nM.

A further data set relates to BZD (peripheral). As to the kind of experiment: Off-target binding screen. The conditions noted are these: 1000 nM.
A short description of a further data set: Intrinsic clearance. In kind it is in vitro ADME. To be noted: rat, rat liver microsomes, pH 7.4.
The next data set concerns the target T3, M2 (Homo sapiens, UniProt P08172).
T3 construct: Eurofins Pharma Discovery Services (contract assay)
T3 sequence (P08172 1-466): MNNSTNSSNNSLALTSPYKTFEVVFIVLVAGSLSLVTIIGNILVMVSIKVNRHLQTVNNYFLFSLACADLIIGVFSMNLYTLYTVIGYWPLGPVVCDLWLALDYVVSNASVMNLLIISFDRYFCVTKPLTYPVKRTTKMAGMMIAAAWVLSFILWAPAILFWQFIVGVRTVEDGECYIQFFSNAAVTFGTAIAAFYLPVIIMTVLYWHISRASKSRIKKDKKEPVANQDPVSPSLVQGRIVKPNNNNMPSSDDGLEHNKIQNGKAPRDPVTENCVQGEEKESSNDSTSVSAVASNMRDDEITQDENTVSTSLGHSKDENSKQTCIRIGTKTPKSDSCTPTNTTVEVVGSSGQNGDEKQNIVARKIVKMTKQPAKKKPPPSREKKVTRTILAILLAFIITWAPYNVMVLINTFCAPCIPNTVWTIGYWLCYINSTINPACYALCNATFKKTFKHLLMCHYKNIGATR
Description: Off-target binding screen. The conditions noted are these: 1000 nM, read-out: % Inhibition of Control Specific Binding.

For the next data set, the target named is T4, D5 (Homo sapiens, UniProt P21918).
T4 construct: Eurofins Pharma Discovery Services (contract assay)
T4 sequence (P21918 whole entry): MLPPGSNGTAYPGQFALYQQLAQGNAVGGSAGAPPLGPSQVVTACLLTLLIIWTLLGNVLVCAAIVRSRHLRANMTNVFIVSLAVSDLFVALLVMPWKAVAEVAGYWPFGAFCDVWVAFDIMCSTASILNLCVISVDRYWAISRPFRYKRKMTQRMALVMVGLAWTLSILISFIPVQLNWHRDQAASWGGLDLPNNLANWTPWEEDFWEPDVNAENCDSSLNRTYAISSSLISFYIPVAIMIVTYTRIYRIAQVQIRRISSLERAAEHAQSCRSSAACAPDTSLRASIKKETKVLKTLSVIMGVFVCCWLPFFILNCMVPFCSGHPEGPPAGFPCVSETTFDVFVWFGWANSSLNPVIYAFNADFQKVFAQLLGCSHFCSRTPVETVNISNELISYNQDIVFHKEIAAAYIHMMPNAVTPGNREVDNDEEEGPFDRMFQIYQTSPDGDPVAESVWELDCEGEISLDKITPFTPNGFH
Description: Off-target binding screen. The conditions noted are these: read-out: % Inhibition of Control Specific Binding; for inhibition at 1 µM: 1000 nM.

In a further data set the target is T5, α1D (Homo sapiens, UniProt P25100).
T5 construct: Eurofins Pharma Discovery Services (contract screen)
T5 sequence (P25100 1-572): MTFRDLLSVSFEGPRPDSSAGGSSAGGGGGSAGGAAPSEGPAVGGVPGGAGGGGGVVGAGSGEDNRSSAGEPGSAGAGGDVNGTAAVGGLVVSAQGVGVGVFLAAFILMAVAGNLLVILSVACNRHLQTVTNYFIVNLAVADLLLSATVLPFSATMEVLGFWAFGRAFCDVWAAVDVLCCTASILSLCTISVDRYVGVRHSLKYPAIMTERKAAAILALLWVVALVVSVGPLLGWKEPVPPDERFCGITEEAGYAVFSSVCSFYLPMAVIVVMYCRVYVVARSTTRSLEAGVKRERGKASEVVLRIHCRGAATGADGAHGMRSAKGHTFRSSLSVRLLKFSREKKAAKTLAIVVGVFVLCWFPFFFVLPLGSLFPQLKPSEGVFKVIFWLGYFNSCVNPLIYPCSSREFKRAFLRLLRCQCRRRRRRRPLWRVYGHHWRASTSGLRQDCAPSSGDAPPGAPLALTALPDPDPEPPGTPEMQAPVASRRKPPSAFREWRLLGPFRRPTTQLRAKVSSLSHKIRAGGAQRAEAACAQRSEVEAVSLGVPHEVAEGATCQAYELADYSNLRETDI
Description: Off-target binding screen. The conditions noted are these: read-out: % Inhibition of Control Specific Binding; for inhibition at 0.01 µM: 10 nM; for inhibition at 0.1 µM: 100 nM; for inhibition at 1 µM: 1000 nM.

Another data set concerns the target T6, 5-HT2C (Homo sapiens, UniProt P28335).
T6 construct: Eurofins Pharma Discovery Services (contract screen)
T6 sequence (P28335 33-458): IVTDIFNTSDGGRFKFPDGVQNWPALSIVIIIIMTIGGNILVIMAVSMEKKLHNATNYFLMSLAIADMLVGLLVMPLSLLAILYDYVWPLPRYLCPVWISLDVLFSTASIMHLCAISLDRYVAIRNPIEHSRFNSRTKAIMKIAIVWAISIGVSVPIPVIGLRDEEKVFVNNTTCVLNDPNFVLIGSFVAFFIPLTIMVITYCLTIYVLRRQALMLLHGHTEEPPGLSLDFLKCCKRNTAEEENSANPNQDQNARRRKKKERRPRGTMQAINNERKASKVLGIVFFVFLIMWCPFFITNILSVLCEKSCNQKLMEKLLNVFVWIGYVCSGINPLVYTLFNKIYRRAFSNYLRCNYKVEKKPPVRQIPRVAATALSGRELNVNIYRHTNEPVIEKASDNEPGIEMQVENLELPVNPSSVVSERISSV
Description: Off-target binding screen. To be noted: 1000 nM, read-out: % Inhibition of Control Specific Binding.

For a further data set, the target named is T7, 5-HT2B (Homo sapiens, UniProt P41595).
T7 construct: Eurofins Pharma Discovery Services (contract screen)
T7 sequence (P41595 whole entry, species assumed): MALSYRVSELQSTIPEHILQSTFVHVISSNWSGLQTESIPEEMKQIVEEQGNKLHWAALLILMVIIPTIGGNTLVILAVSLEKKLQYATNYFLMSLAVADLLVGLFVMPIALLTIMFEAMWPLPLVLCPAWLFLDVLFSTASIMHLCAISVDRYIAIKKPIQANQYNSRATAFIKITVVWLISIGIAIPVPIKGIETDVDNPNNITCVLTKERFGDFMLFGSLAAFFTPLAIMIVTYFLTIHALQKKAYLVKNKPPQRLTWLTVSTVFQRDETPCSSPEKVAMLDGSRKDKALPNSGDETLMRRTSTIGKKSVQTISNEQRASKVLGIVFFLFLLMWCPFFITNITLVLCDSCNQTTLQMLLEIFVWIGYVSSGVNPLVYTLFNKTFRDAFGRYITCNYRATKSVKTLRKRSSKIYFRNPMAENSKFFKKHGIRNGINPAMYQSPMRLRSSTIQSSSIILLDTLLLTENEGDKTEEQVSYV
Description: Off-target binding screen. The conditions noted are these: 1000 nM, read-out: % Inhibition of Control Specific Binding.

Another data set has as its target T8, D4.4 (Homo sapiens, UniProt P21917).
T8 construct: Eurofins Pharma Discovery Services (contract assay)
T8 sequence (P21917 1-419): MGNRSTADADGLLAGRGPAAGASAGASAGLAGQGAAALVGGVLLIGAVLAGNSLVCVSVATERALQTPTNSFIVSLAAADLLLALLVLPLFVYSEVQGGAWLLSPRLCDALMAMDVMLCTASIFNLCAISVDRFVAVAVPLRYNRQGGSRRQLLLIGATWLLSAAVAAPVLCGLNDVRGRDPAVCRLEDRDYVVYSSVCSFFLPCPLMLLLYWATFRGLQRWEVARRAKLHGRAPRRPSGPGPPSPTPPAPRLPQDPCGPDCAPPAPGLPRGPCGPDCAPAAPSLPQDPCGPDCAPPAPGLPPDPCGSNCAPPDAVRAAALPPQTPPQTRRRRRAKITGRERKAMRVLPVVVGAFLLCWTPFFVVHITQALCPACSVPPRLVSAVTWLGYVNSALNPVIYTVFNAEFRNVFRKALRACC
As to the kind of experiment: Off-target binding screen. The conditions noted are these: read-out: % Inhibition of Control Specific Binding; for inhibition at 0.001 µM: 1 nM; for inhibition at 0.01 µM: 10 nM; for inhibition at 0.1 µM: 100 nM; for inhibition at 1 µM: 1000 nM.

For the next data set, the target named is T9, δ (DOR) (Homo sapiens, UniProt P41143).
T9 construct: Eurofins Pharma Discovery Services (contract assay)
T9 sequence (P41143 whole entry): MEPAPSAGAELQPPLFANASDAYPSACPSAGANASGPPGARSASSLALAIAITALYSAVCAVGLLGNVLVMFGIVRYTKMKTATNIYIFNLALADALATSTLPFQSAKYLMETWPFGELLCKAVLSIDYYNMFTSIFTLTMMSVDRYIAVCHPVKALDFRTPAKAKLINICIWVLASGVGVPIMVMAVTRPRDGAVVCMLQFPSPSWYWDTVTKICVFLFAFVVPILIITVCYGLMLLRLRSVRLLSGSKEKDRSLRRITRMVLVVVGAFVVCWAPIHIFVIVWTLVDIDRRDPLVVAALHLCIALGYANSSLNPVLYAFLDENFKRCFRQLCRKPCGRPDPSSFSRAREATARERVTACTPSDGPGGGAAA
Description: Off-target binding screen. To be noted: 1000 nM, read-out: % Inhibition of Control Specific Binding.

T1 sequence (P34969 whole entry, species assumed): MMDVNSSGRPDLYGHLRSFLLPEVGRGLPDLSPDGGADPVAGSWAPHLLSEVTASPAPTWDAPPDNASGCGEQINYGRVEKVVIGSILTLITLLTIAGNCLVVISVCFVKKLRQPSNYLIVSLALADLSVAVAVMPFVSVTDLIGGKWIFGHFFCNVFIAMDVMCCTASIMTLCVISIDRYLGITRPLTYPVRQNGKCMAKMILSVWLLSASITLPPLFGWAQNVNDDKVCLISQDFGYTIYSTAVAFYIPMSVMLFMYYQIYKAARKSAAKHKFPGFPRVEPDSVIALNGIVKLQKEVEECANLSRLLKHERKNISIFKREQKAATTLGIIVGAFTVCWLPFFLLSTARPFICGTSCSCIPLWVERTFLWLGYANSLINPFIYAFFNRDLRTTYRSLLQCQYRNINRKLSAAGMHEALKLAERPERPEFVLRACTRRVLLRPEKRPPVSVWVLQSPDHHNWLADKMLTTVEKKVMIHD

With `O=C(c1ccc(F)c(Cl)c1)N1CCC(F)(CNCCOc2ccccc2)CC1` [Compound 3], the inhibition at 1 µM at 5-HT7 is 30%; at 5-HT1B it was -7%; on M2, -20%; at D5, 40%; at α1D, 84%; at 5-HT2C, -15%. Further, the inhibition at 1 µM was found to be 11% at 5-HT2B, 92% at D4.4 and 3% on δ (DOR). In addition, in the data set with BZD (peripheral), the “% Inhibition of Control Specific Binding” value is -1.0%. The CLint scaled at […], 50 µM in the data set “Intrinsic clearance” is 2.5 L/h/kg. For the same compound, the inhibition at 0.01 µM at α1D was 19%; on D4.4 it was 8%. For the same compound, the results for the inhibition at 0.1 µM on α1D and on D4.4 were 40% and 59%, respectively. On D4.4, the inhibition at 0.001 µM was -1%.

Consider `O=C(c1ccc(F)c(Cl)c1)N1CCC(F)(CNCCOc2cccc3[nH]ccc23)CC1` [Compound 56, (4-(((2-((1H-Indol-4-yl)oxy)ethyl)amino)methyl)-4-fluoropiperidin-1-yl)(3-chloro-4-fluorophenyl)methanone], for which the inhibition at 0.001 µM at 5-HT7 (1 nM) is 5%; at D5 (1 nM), -10%; at α1D (1 nM) it was -7%; on D4.4, 9%. The inhibition at 0.01 µM at 5-HT7 (10 nM) is 32%; on 5-HT1B (10 nM) it was 1%; at D5 (10 nM) it was -3%; on α1D it was 23%; at D4.4 it was 48%. The inhibition at 0.1 µM on 5-HT7 (100 nM) worked out at 68%; at 5-HT1B (100 nM), 17%; on D5 (100 nM), 53%; at α1D, 63%; at D4.4 it was 89%. The inhibition at 1 µM is 63% on 5-HT1B; -8% at M2; 91% on D5; 6% on 5-HT2C; 48% on 5-HT2B; 98% on D4.4. Moreover, the inhibition at 1 µM on δ (DOR) is 0%. Moreover, the “% Inhibition of Control Specific Binding” value in the data set on BZD (peripheral) is on record as -1.0%. For the same compound, the CLint scaled at […], 50 µM in “Intrinsic clearance” came to 0.576 L/h/kg.

As for `CNc1ccccc1OCCNCC1(F)CCN(C(=O)c2ccc(F)c(Cl)c2)CC1` [Compound 44, (3-Chloro-4-fluorophenyl)(4-fluoro-4-(((2-(2-(methylamino)phenoxy)ethyl)amino)methyl)piperidin-1-yl)methanone], the inhibition at 1 µM was 11% on 5-HT7; 0% at 5-HT1B; -12% on M2; 29% on D5; 80% on α1D; -9% on 5-HT2C. Further, the values for the inhibition at 1 µM on 5-HT2B, at D4.4 and on δ (DOR) were 23%, 90% and -5%, respectively. Also, the “% Inhibition of Control Specific Binding” value in the data set with BZD (peripheral) is on record as -5.0%. The compound further gave a CLint scaled at […], 50 µM in the data set “Intrinsic clearance” of 2.93 L/h/kg. Further, on α1D, the inhibition at 0.01 µM is -1%. The inhibition at 0.1 µM on α1D amounted to 32%; on D4.4, 51%.

By inhibition is commonly meant the drop in the measured response relative to a control, in per cent. What is called CLint scaled is the capacity of the preparation to metabolise the compound, expressed as a volume cleared per time. The low end stands for greater metabolic stability, the high end for faster metabolism.
